Source: patent publication US5741664A, “Subtilisin variants capable of cleaving substrates containing dibasic residues” (priority 1995, dated 1998)
Residues, ends and D or L forms follow the SMILES beside them.

What was measured:
[1] = molecular target: T1, KEX2 (yeast pro-hormone processing protease) (Saccharomyces cerevisiae, UniProt P13134); conditions: KEX2 cleaving Boc-RVRR-MCA; Brenner and Fuller 1992; cited from earlier work
T1 sequence (P13134 114-613 limits assumed): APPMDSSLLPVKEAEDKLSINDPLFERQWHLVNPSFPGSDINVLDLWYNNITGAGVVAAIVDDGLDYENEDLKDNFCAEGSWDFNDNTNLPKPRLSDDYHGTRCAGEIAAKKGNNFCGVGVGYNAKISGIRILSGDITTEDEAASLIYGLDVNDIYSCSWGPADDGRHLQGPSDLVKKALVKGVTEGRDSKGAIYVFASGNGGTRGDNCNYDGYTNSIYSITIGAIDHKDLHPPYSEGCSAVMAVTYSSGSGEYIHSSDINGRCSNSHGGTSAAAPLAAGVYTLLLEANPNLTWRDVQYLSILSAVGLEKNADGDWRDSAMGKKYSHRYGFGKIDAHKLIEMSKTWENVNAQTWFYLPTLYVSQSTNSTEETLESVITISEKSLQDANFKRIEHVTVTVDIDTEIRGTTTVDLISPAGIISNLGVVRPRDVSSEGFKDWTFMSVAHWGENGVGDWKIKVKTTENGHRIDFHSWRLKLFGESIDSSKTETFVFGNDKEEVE

[2] = molecular target: T2, Bacillus amyloliquefaciens subtilisin BPN' variant G166D (Bacillus amyloliquefaciens, UniProt P00782, G273D); test: hydrolysis of p-nitroanilide tetrapeptide substrates, initial rates; type: biochemical; conditions: suc-AAPX-pna series; 20 mM Tris-Cl pH 8.2, 4% DMSO, 25 C
T2 construct: made in house; host or cells: Bacillus subtilis BG2036 (secreted, purified from culture supernatant)
T2 sequence (P00782 108-382 G273D): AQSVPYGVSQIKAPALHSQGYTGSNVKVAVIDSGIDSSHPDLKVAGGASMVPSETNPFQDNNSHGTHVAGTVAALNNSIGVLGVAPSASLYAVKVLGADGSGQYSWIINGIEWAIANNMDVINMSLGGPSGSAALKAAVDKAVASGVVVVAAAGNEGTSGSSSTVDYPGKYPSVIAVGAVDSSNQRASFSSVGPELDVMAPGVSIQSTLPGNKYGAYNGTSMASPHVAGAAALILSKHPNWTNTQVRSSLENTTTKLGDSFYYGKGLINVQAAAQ
Excerpt: To probe the effects of the G166E and G166D on specificity at the P1 position we used substrates having the form suc-AAPX-pna (SEQ ID NO: 69) where X was either Lys (SEQ ID NO: 58), Arg (SEQ ID NO: 59), Phe (SEQ ID NO: 56), Met (SEQ ID NO: 60) or Gln (SEQ ID NO: 61). Whereas the wild-type enzyme preferred Phe>Met>Lys>Arg>Gln, the G166E preferred Lys~Phe>Arg~Met>Gln, and G166D preferred Lys>Phe~Arg~Met>Gln. Thus, both the acidic substitutions at position 166 caused a shift in preference for basic residues as previously reported (Wells, J. A., Powers, D. B., Bott, R. R., Graycar, T. P. and Estell, D. A. (1987a), Proc. Natl. Acad. Sci. USA 84:1219-1223).
(§1) Subtilisins were assayed by measuring the initial rates of hydrolysis of p-nitroanilide tetrapeptide substrates in 0.4 mL 20 mM Tris-Cl pH 8.2, 4 % (v/v) dimethyl sulfoxide at (25±0.2)° C. as described previously (Estell, D. A., Graycar, T. P., Miller, J. V., Powers, D. B., Burnier, J. P., Ng, P. G. and Wells, J. A. [1986] Science 233:659-663). Enzyme concentrations [E]0 were determined spectrophotometrically using E280 nm 0.1%=1.17 (Matsubara, H.; Kasper, C B.; Brown, D. M.; and Smith, E. L. (1965) J. Biol. Chem.,240:1125-1130.), and were typically 5-50 nM in reactions. Initial rates were determined for nine to twelve different substrate concentrations over the range of 0.001-2.0 mM. […]

[3] = molecular target: T3, subtilisin (subtilisin BPN' from Bacillus amyloliquefaciens, wild type) (Bacillus amyloliquefaciens, UniProt P00782); conditions: subtilisin cleaving suc-AAPF-pna; Estell et al. 1986; cited from earlier work
T3 sequence (P00782 108-382): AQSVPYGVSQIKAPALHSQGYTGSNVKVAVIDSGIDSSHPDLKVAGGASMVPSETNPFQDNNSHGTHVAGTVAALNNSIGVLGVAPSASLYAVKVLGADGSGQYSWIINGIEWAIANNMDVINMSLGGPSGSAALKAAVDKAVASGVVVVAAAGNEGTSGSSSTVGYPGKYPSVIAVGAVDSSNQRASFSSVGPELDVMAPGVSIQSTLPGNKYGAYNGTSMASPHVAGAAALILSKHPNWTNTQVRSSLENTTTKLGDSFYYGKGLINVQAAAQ

[4] = molecular target: T4, Bacillus amyloliquefaciens subtilisin BPN' variant N62D/G166D (mature enzyme SEQ ID NO: 72) (Bacillus amyloliquefaciens, UniProt P00782, G273D/N169D); test: hydrolysis of p-nitroanilide tetrapeptide substrates, initial rates; type: biochemical; conditions: suc-AAXX-pna series; 20 mM Tris-Cl pH 8.2, 4% DMSO, 25 C
T4 construct: made in house; host or cells: Bacillus subtilis BG2036 (secreted, purified from culture supernatant)
T4 sequence (P00782 108-382 N169D/G273D): as the sequence (P00782 108-382 G273D) above, with N62D counted along it
Procedure: (§2) Despite the less than additive effects seen for the two charged substitutions in the S2 site, we decided to combine the best S2 site variant (N62D) with either of the acidic substitutions in the S1 site. The two double mutants, N62D/G166E and N62D/G166D, were analyzed with substrates having the form, suc-AAXX-pna (SEQ ID NO: 71) where XX was either KK (SEQ ID NO: 66), KR (SEQ ID NO: 67), KF (SEQ ID NO: 62), PK (SEQ ID NO: 58), PF (SEQ ID NO: 56) or AF (SEQ ID NO: 63)(FIG. 4). The wild-type preference was AF>PF~KF>KK~PK>KR, whereas the double mutants had the preference KK>KR>KF>PK~AF>PF. […]
as §1

[5] = molecular target: T5, Bacillus amyloliquefaciens subtilisin BPN' variant N62D/G166E (Bacillus amyloliquefaciens, UniProt P00782, G273E/N169D); test: as above; type: biochemical; conditions: suc-AAXX-pna series; 20 mM Tris-Cl pH 8.2, 4% DMSO, 25 C
T5 construct: made in house; host or cells: Bacillus subtilis BG2036 (secreted, purified from culture supernatant)
T5 sequence (P00782 108-382 N169D/G273E): as the sequence (P00782 108-382 G273D) above, with N62D, D166E counted along it
Procedure: as §2, §1

For `Cc1cc(=O)oc2cc(NC(=O)[C@H](CCCNC(=N)N)NC(=O)[C@H](CCCNC(=N)N)NC(=O)[C@@H](NC(=O)[C@H](CCCNC(=N)N)NC(=O)OC(C)(C)C)C(C)C)ccc12` [Boc-RVRR-MCA, N-t-butoxy carbonyl-arginine-valine-arginine-arginine-7-amido-4-methyl coumarin] (HELM PEPTIDE1{[CC(C)(C)OC(=O)[*:2]].R.V.R.R.[Cc1cc(=O)oc2cc(N[*:1])ccc12]}$$$$V2.0), the kcat/Km [1] is given as 1e+06 M⁻¹ s⁻¹.

With `C[C@H](NC(=O)CCC(=O)O)C(=O)N[C@@H](C)C(=O)N1CCC[C@H]1C(=O)N[C@@H](CCCCN)C(=O)Nc1ccc([N+](=O)[O-])cc1` [Lys P1 substrate] (HELM PEPTIDE1{[O=C(O)CCC(=O)[*:2]].A.A.P.K.[O=[N+]([O-])c1ccc(N[*:1])cc1]}$$$$V2.0) the “ratio of catalytic efficiencies (kcat/Km), Lys P1 substrate versus Phe P1 substrate” value [2] was “about 3 times faster”.

In the case of `C[C@H](NC(=O)CCC(=O)O)C(=O)N[C@@H](C)C(=O)N1CCC[C@H]1C(=O)N[C@@H](Cc1ccccc1)C(=O)Nc1ccc([N+](=O)[O-])cc1` [suc-AAPF-pna, N-succinyl-alanine-alanine-proline-phenylalanyl-p-nitroanalide] (HELM PEPTIDE1{[O=C(O)CCC(=O)[*:2]].A.A.P.F.[O=[N+]([O-])c1ccc(N[*:1])cc1]}$$$$V2.0), the kcat/Km [3] is listed as 300000 M⁻¹ s⁻¹.

For `C[C@H](NC(=O)CCC(=O)O)C(=O)N[C@@H](C)C(=O)N[C@@H](CCCCN)C(=O)N[C@@H](CCCCN)C(=O)Nc1ccc([N+](=O)[O-])cc1` [Lys-Lys substrate] (HELM PEPTIDE1{[O=C(O)CCC(=O)[*:2]].A.A.K.K.[O=[N+]([O-])c1ccc(N[*:1])cc1]}$$$$V2.0), the “ratio of catalytic efficiencies (kcat/Km), Lys-Lys substrate versus Lys-Phe substrate” value [4] was 18 times faster and the “ratio of catalytic efficiencies (kcat/Km), Lys-Lys substrate versus Lys-Phe substrate” value [5] was “about 8 times faster”.
